Experimental data taken from article PMC11091220, “Metabolism-driven in vitro/in vivo disconnect of an oral ERɑ VHL-PROTAC” (Communications Biology, 2024).
Values joined by “and” are separate entries in the source; they are usually repeats but may differ in a detail not shown here. Identical values can stand only once. Like-named read-outs stand apart in the source and are kept apart here.

Legend:
[1] = molecular target: T1, recombinant human ERα ligand binding domain (LBD) (Homo sapiens, UniProt P03372); assay: ERα binding assay (LanthaScreen TR-FRET competition)
T1 construct: purchased Invitrogen PV4543
T1 sequence (P03372 311-547 limits assumed): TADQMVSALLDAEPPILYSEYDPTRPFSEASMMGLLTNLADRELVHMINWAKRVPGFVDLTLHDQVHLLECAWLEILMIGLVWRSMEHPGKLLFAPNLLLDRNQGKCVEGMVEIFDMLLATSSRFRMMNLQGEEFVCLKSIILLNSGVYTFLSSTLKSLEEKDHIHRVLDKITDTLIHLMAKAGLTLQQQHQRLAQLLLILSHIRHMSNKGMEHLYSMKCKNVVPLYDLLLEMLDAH
Protocol: The ability of compounds to bind to isolated ERα Ligand binding domain (ERα–LBD (GST)) was assessed in competition assays using a LanthaScreenTM Time-Resolved Fluorescence Resonance Energy Transfer (TR-FRET) detection end-point. For the LanthaScreen TR-FRET endpoint, a suitable fluorophore (Fluormone ES2, Product code P2645) and recombinant human ERα ligand binding domain (LBD) (product code PV4543) were purchased from Invitrogen and used to measure compound binding. A terbium-labelled anti-GST antibody (Product code PV3551) is used to indirectly label the receptor by binding to its GST tag, and competitive binding is detected by a test compounds’ ability to displace the fluorescent ligand resulting in a loss of TR-FRET signal between the Tb-anti-GST antibody and the tracer. The assay was performed with all reagent additions carried out using the Beckman Coulter BioRAPTR FRD microfluidic workstation: […]

ERα = molecular target: T2, ERα (Homo sapiens, UniProt P03372); assay: ERα high throughput imaging degradation assay in MCF7 cells; type: cell-based; settings: for Dmax: MCF7; for DC50: MCF7 cells, 20 to 24 hours; for Degradation vs fulvestrant: listed as Cmp 7
T2 construct: endogenous in cells; host or cells: MCF7 (also MCF7 engineered to express Cas9)
T2 sequence (P03372 1-595): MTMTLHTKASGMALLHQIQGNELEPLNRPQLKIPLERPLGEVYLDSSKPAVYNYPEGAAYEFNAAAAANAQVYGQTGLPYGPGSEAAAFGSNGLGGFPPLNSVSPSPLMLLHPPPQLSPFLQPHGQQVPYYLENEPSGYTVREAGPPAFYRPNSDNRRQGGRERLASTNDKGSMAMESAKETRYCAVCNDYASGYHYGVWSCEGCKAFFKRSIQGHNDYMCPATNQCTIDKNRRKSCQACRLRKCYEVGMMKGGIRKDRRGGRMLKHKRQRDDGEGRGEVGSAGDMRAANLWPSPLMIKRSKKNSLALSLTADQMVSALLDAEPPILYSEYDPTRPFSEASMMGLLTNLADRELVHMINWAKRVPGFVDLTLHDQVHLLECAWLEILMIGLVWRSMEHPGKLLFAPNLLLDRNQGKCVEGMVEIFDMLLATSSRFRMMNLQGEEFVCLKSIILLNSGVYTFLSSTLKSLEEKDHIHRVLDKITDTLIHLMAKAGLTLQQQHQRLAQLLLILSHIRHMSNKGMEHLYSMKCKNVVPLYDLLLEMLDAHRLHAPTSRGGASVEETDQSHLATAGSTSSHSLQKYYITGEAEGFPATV
Protocol: Cells were fixed, permeabilised and stained with anti-ERα (rabbit clone SP1, Thermo) and anti-PR (mouse clone PgR 636, Dako) antibodies followed by secondary AlexaFluor 594 goat anti-rabbit and AlexaFluor 488 goat anti-mouse IgG antibodies. Imaging was using the Thermo Cellinsight scanner and average fluorescence intensity was analysed using Genedata.

[2] = Mouse hepatocyte intrinsic clearance; type: in vitro ADME; settings: for hepatocyte CLint at 1 µM: male, CD-1, mouse, hepatocytes
Protocol: Livers from CD-1 male mice weighing 30-35 g were digested and perfused using D-Hanks solution containing EDTA or collagenase. Once digested the liver was transferred to a petri dish and the hepatocytes were prepared by washing and centrifuging with a Leibovitz-15 medium containing 50% isotonic percoll. A cell viability >80% was required to progress the cells. The test compound was prepared to 10 mM in 100% DMSO and further diluted to 100 μM in 100% acetonitrile. The hepatocyte incubations were prepared in Leibovitz’s L-15 Medium pH 7.4 containing 1 million hepatocytes/mL and a final compound concentration of 1 µM. Cell viability was determined using a Cellometer Vision and >80% cell viability was required to proceed with the compound incubation. The compound/cell solution (250 µL) was incubated for 2 h at 37 °C and shaken at 900 rpm on an Eppendorf Thermomixer Comfort plate shaker. Samples (20 µL) were taken at 0.5, 5, 15, 30, 45, 60, 80, 100, and 120 min and quenched with 100 μL of 100% ice-cold acetonitrile. Samples were shaken at 800 rpm for 2 min and centrifuged at 4000 rpm for 20 min at 4 °C to pellet precipitated protein. The supernatant fraction was diluted 1:5 with deionised water, shaken at 1000 rpm for 2 min, and further diluted 1:1 with deionised water. Samples were analysed by LC-MS/MS[17].

[3] = molecular target: ESR1-Nanoluciferase fusion protein (Homo sapiens, UniProt P03372); assay: ERα nanoluciferase degradation assay; type: cell-based; settings: for DC50: 24 hours, read-out: ERα nano-luciferase degradation DC50; for IC50: Table 1 source data, mean, read-out: ERa nanocluciferase degradation DC50 (nM), Mean IC50; for Dmax: read-out: ERα nano-luciferase Dmax
Sequence of ESR1-Nanoluciferase fusion protein (P40337 whole entry, one chain of several, the tested form may be a part): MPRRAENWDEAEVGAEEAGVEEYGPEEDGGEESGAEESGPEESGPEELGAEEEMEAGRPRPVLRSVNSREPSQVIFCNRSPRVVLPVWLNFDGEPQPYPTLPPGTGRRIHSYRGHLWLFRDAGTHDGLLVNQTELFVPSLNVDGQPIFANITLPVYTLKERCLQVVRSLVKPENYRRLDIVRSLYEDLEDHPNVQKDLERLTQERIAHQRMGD
Protocol: MCF7 pTRIPZ Cas9 cells stably transfected with pSMPNeo dual Luc ESR1 vector (containing ESR1-Nanoluciferase fusion protein/reporter and a Firefly luciferase reporter) were seeded into T175 flasks and incubated for 48 hours in RPMI 1640 media containing 10% (v/v) foetal bovine serum (FBS) and 2 mM L-Glutamine. The cells were then seeded at 20000 cells/well into 384-well plates containing compounds at concentrations ranging from 3.125 µM to 15.9 pM. Following 24 hours incubation (37 °C, 5% CO2), media was removed and ONE-Glow^TM EX luciferase reagent (Promega) was added to each well. Firefly luminescence was measured after 5 minutes using an Envision (PerkinElmer). NanoDLR^TM Stop and Glo® reagent (Promega) was added and incubated for ten minutes (room temperature), before measuring Nano luminescence using the Envision. Wells containing vehicle or 3 µM Fulvestrant were used to normalise data, and degradation of ESR1-Nanoluciferase was analysed using Genedata Screener.

[4] = mean ± s.d., read-out: ERα binding IC50
[5] = 0% vehicle control, 100% fulvestrant, read-out: ERα imaging Dmax
[6] = pH 7.4, read-out: muHeps (mouse hepatocytes) clearance
[7] = MCF7, read-out: ERα imaging Dmax, 0% vehicle control, 100% fulvestrant
[8] = Table S4 source data, mean, read-out: ERa binding, Mean
[9] = Table S4 source data, read-out: ERa degradation, Dmax (%)

Cc1ncsc1-c1ccc(CNC(=O)[C@@H]2C[C@@H](O)CN2C(=O)[C@@H](NC(=O)COCCOc2cc(F)c([C@@H]3c4[nH]c5ccccc5c4C[C@@H](C)N3CC(C)(C)F)c(F)c2)C(C)(C)C)cc1 [Compound 1]
IC50 [1, 4]: 1.3 nM
Dmax (ERα; [5]): 89 ± 1%
DC50 (ERα): 0.6 ± 1.2 nM
hepatocyte CLint at 1 µM [2, 6]: 22 µL/min/1e6 cells

Cc1ncsc1-c1ccc(CNC(=O)[C@@H]2C[C@@H](O)CN2C(=O)[C@@H](NC(=O)COCCOCCOc2cc(F)c([C@@H]3c4[nH]c5ccccc5c4C[C@@H](C)N3CC(C)(C)F)c(F)c2)C(C)(C)C)cc1 [Compound 2]
IC50 [1, 4]: 0.6 nM
Dmax (ERα; [5]): 94%
DC50 (ERα): 0.8 nM
hepatocyte CLint at 1 µM [2, 6]: 40 µL/min/1e6 cells

Cc1ncsc1-c1ccc(CNC(=O)[C@@H]2C[C@@H](O)CN2C(=O)[C@@H](NC(=O)COCCOCCOCCOc2cc(F)c([C@@H]3c4[nH]c5ccccc5c4C[C@@H](C)N3CC(C)(C)F)c(F)c2)C(C)(C)C)cc1 [Compound 3]
IC50 [1, 4]: 0.3 nM
Dmax (ERα; [7]): 99 ± 2%
DC50 (ERα): 0.3 ± 0.1 nM
DC50 [3]: 3.1 nM
IC50 [3]: 3.1 nM
Dmax [3]: 124%
hepatocyte CLint at 1 µM [2, 6]: 31 µL/min/1e6 cells

Cc1ncsc1-c1ccc(CNC(=O)[C@@H]2C[C@@H](O)CN2C(=O)[C@@H](NC(=O)COCCOCCOCCOCCOc2cc(F)c([C@@H]3c4[nH]c5ccccc5c4C[C@@H](C)N3CC(C)(C)F)c(F)c2)C(C)(C)C)cc1 [Compound 4]
IC50 [1, 4]: 6.3 nM
Dmax (ERα; [5]): 101%
DC50 (ERα): 3.2 nM
hepatocyte CLint at 1 µM [2, 6]: 41 µL/min/1e6 cells

Cc1ncsc1-c1ccc(CNC(=O)[C@@H]2C[C@@H](O)CN2C(=O)[C@@H](NC(=O)COCCN2CCN(CCOc3cc(F)c([C@@H]4c5[nH]c6ccccc6c5C[C@@H](C)N4CC(C)(C)F)c(F)c3)CC2)C(C)(C)C)cc1 [Compound 6]
IC50 [1, 4]: 1.3 nM
Dmax (ERα; [7]): 100 ± 0.5%
DC50 (ERα): 0.5 ± 0.4 nM
DC50 [3]: 46 ± 27 nM
IC50 [3]: 46 nM
Dmax [3]: 88 ± 1%
hepatocyte CLint at 1 µM [2, 6]: 11 µL/min/1e6 cells

Cc1ncsc1-c1ccc(CNC(=O)[C@@H]2C[C@H](O)CN2C(=O)[C@@H](NC(=O)COCCCOCCCOc2cc(F)c([C@@H]3c4[nH]c5ccccc5c4C[C@@H](C)N3CC(C)(C)F)c(F)c2)C(C)(C)C)cc1 [Compound 7]
IC50 [1, 4]: 1 nM
Degradation vs fulvestrant (ERα; Log M -6.5, MCF7, 24 h): 64.0% and 68.3%
Degradation vs fulvestrant (ERα; Log M -7.0): 68.3% and 71.6% and 59.3% and 58.8%
Degradation vs fulvestrant (ERα; Log M -7.5): 65.0% and 59.3% and 59.1% and 57.9%
Degradation vs fulvestrant (ERα; Log M -7.9): 65.6% and 48.2% and 57.7% and 56.0%
Degradation vs fulvestrant (ERα; Log M -8.5): 49.3% and 36.8% and 53.9% and 47.6%
Degradation vs fulvestrant (ERα; Log M -9.0): 32.2% and 32.7% and 45.9% and 42.5%
Dmax (ERα; [7]): ~65%
DC50 (ERα): 3.1 nM
DC50 [3]: > 3000 nM
IC50 [3]: > 3000 nM

Cc1ncsc1-c1ccc(CNC(=O)[C@@H]2C[C@@H](O)CN2C(=O)[C@@H](NC(=O)COCCOCCCCOc2cc(F)c([C@@H]3c4[nH]c5ccccc5c4C[C@@H](C)N3CC(C)(C)F)c(F)c2)C(C)(C)C)cc1 [Compound 9]
IC50 [1, 8]: 0.6 nM
DC50 (ERα): 0.5 ± 0.1 nM
ERa degradation, Dmax (%) (ERα; Table S4 source data): 100%
muHeps, Mean Clint (mL/min/10^6 cells) ([2]; mouse hepatocytes, Table S4 source data): 14 mL/min/10^6 cells

Cc1ncsc1-c1ccc(CNC(=O)[C@@H]2C[C@@H](O)CN2C(=O)[C@@H](NC(=O)COCCCOCCOc2cc(F)c([C@@H]3c4[nH]c5ccccc5c4C[C@@H](C)N3CC(C)(C)F)c(F)c2)C(C)(C)C)cc1 [Compound 10]
IC50 [1, 8]: 0.5 nM
Dmax (ERα; [9]): 100%
DC50 (ERα): 0.4 nM
hepatocyte CLint at 1 µM ([2]; pH 7.4, mouse hepatocytes, Table S4 source data, read-out: muHeps, Mean Clint (mL/min/10^6 cells)): 19 µL/min/1e6 cells
hepatocyte CLint at 1 µM [2, 6]: 20 ± 1 µL/min/1e6 cells

Cc1ncsc1-c1ccc(CNC(=O)[C@@H]2C[C@@H](O)CN2C(=O)[C@@H](NC(=O)C2(OCCCOCCCOc3cc(F)c([C@@H]4c5[nH]c6ccccc6c5C[C@@H](C)N4CC(C)(C)F)c(F)c3)CC2)C(C)(C)C)cc1 [Compound 13]
IC50 [1, 8]: 1 nM
Dmax (ERα; [9]): 96%
DC50 (ERα): 2 nM

Cc1ncsc1-c1ccc(CNC(=O)[C@@H]2C[C@@H](O)CN2C(=O)[C@@H](NC(=O)COCCCc2cccc(COc3cc(F)c([C@@H]4c5[nH]c6ccccc6c5C[C@@H](C)N4CC(C)(C)F)c(F)c3)c2)C(C)(C)C)cc1 [Compound 14]
Dmax (ERα; [9]): 103%
DC50 (ERα): 4.9 nM

Cc1ncsc1-c1ccc(CNC(=O)[C@@H]2C[C@@H](O)CN2C(=O)[C@@H](NC(=O)COCc2cccc(CCCOc3cc(F)c([C@@H]4c5[nH]c6ccccc6c5C[C@@H](C)N4CC(C)(C)F)c(F)c3)c2)C(C)(C)C)cc1 [Compound 15]
Dmax (ERα; [9]): 106%
DC50 (ERα): 14 nM
